Laboratory results from patent publication US8987250B2 (Gilead Sciences, Inc., priority 2012, dated 2015).

System: HIV-IIIb
Experiment: Test A: Antiviral Assay in MT4 Cells
Type: cell-based
Conditions: Human immunodeficiency virus 1, IIIB, MT4, 120 h
In short: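 Read-out: CellTiter-Glo chemiluminescence after 5-day incubation at 37 °C. Compounds tested as 3-fold serial dilutions (10 concentrations, quadruplicate) in RPMI 1640 with 10% FBS, on MT-4 cells pre-infected at 37 °C with HIV-IIIb at 0.004 m.o.i.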

`Cc1cc2nc(N3CCn4c(nnc4C(F)(F)F)C3)sc2c(-c2ccc(Cl)cc2)c1[C@H](OC(C)(C)C)C(=O)O` [Compound 250, (S)-2-tert-butoxy-2-(7-(4-chlorophenyl)-5-methyl-2-(3-(trifluoromethyl)-5,6-dihydro-[1,2,4]triazolo[4,3-a]pyrazin-7(8H)-yl)benzo[d]thiazol-6-yl)acetic acid] showed an EC50 of 235 nM.

Same assay, conditions: Human immunodeficiency virus 1, IIIB, MT4, 120 h, Table 2; MT-4 cells infected with HIV-IIIb, 5 days of incubation, CellTiter-Glo; read-out: EC50

Compared with `CCc1cnn2cc(-c3cc(-c4nc5cc(C)c([C@H](OC(C)(C)C)C(=O)O)c(-c6ccc(Cl)cc6)c5s4)ccn3)cnc12` [Compound 226, (S)-2-tert-butoxy-2-(7-(4-chlorophenyl)-2-(2-(3-ethylpyrazolo[1,5-a]pyrimidin-6-yl)pyridin-4-yl)-5-methylbenzo[d]thiazol-6-yl)acetic acid], `CCc1cnn2cc(-c3nc4cc(C)c([C@H](OC(C)(C)C)C(=O)O)c(-c5ccc(Cl)cc5)c4s3)cnc12` [Compound 227, (S)-2-tert-butoxy-2-(7-(4-chlorophenyl)-2-(3-ethylpyrazolo[1,5-a]pyrimidin-6-yl)-5-methylbenzo[d]thiazol-6-yl)acetic acid] is 2.4-fold higher in EC50: 36 nM for the first, 85 nM for the second. The first is the more potent here.

First: Cc1cc2nc(-c3cccc(-n4cc(C)c(=O)[nH]c4=O)c3)sc2c(-c2ccc(Cl)cc2)c1[C@H](OC(C)(C)C)C(=O)O [Compound 228, (S)-2-tert-butoxy-2-(7-(4-chlorophenyl)-5-methyl-2-(3-(5-methyl-2,4-dioxo-3,4-dihydropyrimidin-1(2H)-yl)phenyl)benzo[d]thiazol-6-yl)acetic acid]
Second: Cc1cc2nc(-c3cccc(-n4ccc(=O)[nH]c4=O)c3)sc2c(-c2ccc(Cl)cc2)c1[C@H](OC(C)(C)C)C(=O)O [Compound 229, (S)-2-tert-butoxy-2-(7-(4-chlorophenyl)-2-(3-(2,4-dioxo-3,4-dihydropyrimidin-1(2H)-yl)phenyl)-5-methylbenzo[d]thiazol-6-yl)acetic acid]
The EC50 of the first is 1.9-fold lower: 910 nM for the first, 1740 nM for the second. The first is the more potent here.

Compared with `Cc1cc2nc(-c3ccnc(-c4ccc(=O)[nH]c4)c3)sc2c(-c2ccc(Cl)cc2)c1[C@H](OC(C)(C)C)C(=O)O` [Compound 230, (S)-2-tert-butoxy-2-(7-(4-chlorophenyl)-5-methyl-2-(2-(6-oxo-1,6-dihydropyridin-3-yl)pyridin-4-yl)benzo[d]thiazol-6-yl)acetic acid], `Cc1cc2nc(-c3ccnc(-c4ccc[nH]c4=O)c3)sc2c(-c2ccc(Cl)cc2)c1[C@H](OC(C)(C)C)C(=O)O` [Compound 232, (S)-2-tert-butoxy-2-(7-(4-chlorophenyl)-5-methyl-2-(2-(2-oxo-1,2-dihydropyridin-3-yl)pyridin-4-yl)benzo[d]thiazol-6-yl)acetic acid] is 1.5-fold lower in EC50: 131 nM for the first, 86 nM for the second.

`COc1ncccc1-c1cc(-c2nc3cc(C)c([C@H](OC(C)(C)C)C(=O)O)c(-c4ccc(Cl)cc4)c3s2)ccn1` [Compound 233, (S)-2-tert-butoxy-2-(7-(4-chlorophenyl)-2-(2′-methoxy-2,3′-bipyridin-4-yl)-5-methylbenzo[d]thiazol-6-yl)acetic acid] and `Cc1cc2nc(-c3ccnc(-c4cccc5c4CC(=O)N5C)c3)sc2c(-c2ccc(Cl)cc2)c1[C@H](OC(C)(C)C)C(=O)O` [Compound 236, (S)-2-tert-butoxy-2-(7-(4-chlorophenyl)-5-methyl-2-(2-(1-methyl-2-oxoindolin-4-yl)pyridin-4-yl)benzo[d]thiazol-6-yl)acetic acid] are within 1.5-fold of each other in EC50: 33 nM for the first, 31 nM for the second.

`Cc1cc2nc(-c3ccnc(-c4cc5c(C)nn(C)c5cn4)c3)sc2c(-c2ccc(Cl)cc2)c1[C@H](OC(C)(C)C)C(=O)O` [Compound 234, (S)-2-tert-butoxy-2-(7-(4-chlorophenyl)-2-(2-(1,3-dimethyl-1H-pyrazolo[3,4-c]pyridin-5-yl)pyridin-4-yl)-5-methylbenzo[d]thiazol-6-yl)acetic acid] and `Cc1cc2nc(-c3cc4c(C)nn(C)c4cn3)sc2c(-c2ccc(Cl)cc2)c1[C@H](OC(C)(C)C)C(=O)O` [Compound 235, (S)-2-tert-butoxy-2-(7-(4-chlorophenyl)-2-(1,3-dimethyl-1H-pyrazolo[3,4-c]pyridin-5-yl)-5-methylbenzo[d]thiazol-6-yl)acetic acid] are within 1.5-fold of each other in EC50: 13 nM for the first, 14 nM for the second.

Compared with `Cc1cc2nc(-c3ccnc(-c4ccc5c(c4)CC(=O)N5C)c3)sc2c(-c2ccc(Cl)cc2)c1[C@H](OC(C)(C)C)C(=O)O` [Compound 237, (S)-2-tert-butoxy-2-(7-(4-chlorophenyl)-5-methyl-2-(2-(1-methyl-2-oxoindolin-5-yl)pyridin-4-yl)benzo[d]thiazol-6-yl)acetic acid], `Cc1cc2nc(-c3ccc4c(c3)CC(=O)N4C)sc2c(-c2ccc(Cl)cc2)c1[C@H](OC(C)(C)C)C(=O)O` [Compound 239, (S)-2-tert-butoxy-2-(7-(4-chlorophenyl)-5-methyl-2-(1-methyl-2-oxoindolin-5-yl)benzo[d]thiazol-6-yl)acetic acid] is 2.6-fold higher in EC50: 10 nM for the first, 26 nM for the second.

Compared with `Cc1cc2nc(-c3ccc4c(c3)CC(=O)N4)sc2c(-c2ccc(Cl)cc2)c1[C@H](OC(C)(C)C)C(=O)O` [Compound 240, (S)-2-tert-butoxy-2-(7-(4-chlorophenyl)-5-methyl-2-(2-oxoindolin-5-yl)benzo[d]thiazol-6-yl)acetic acid], `Cc1cc2nc(-c3ccc4c(c3)CN(C)C4=O)sc2c(-c2ccc(Cl)cc2)c1[C@H](OC(C)(C)C)C(=O)O` [Compound 248, (S)-2-tert-butoxy-2-(7-(4-chlorophenyl)-5-methyl-2-(2-methyl-1-oxoisoindolin-5-yl)benzo[d]thiazol-6-yl)acetic acid] is 5.8-fold lower in EC50: 76 nM for the first, 13 nM for the second. The second is the more potent here.

Going from `Cc1cc2nc(-c3ccnc(N4Cc5ccncc5C4=O)c3)sc2c(-c2ccc(Cl)cc2)c1[C@H](OC(C)(C)C)C(=O)O` [Compound 241, (S)-2-tert-butoxy-2-(7-(4-chlorophenyl)-5-methyl-2-(2-(3-oxo-1H-pyrrolo[3,4-c]pyridin-2(3H)-yl)pyridin-4-yl)benzo[d]thiazol-6-yl)acetic acid] to `Cc1cc2nc(-c3ccnc(N4CCc5cnccc54)c3)sc2c(-c2ccc(Cl)cc2)c1[C@H](OC(C)(C)C)C(=O)O` [Compound 245, (S)-2-tert-butoxy-2-(7-(4-chlorophenyl)-2-(2-(2,3-dihydro-1H-pyrrolo[3,2-c]pyridin-1-yl)pyridin-4-yl)-5-methylbenzo[d]thiazol-6-yl)acetic acid], the EC50 rises from 3 nM to 9 nM (3-fold).

First: Cc1ccc2c(c1)CCN2c1nc2cc(C)c([C@H](OC(C)(C)C)C(=O)O)c(-c3ccc(Cl)cc3)c2s1 [Compound 243, (S)-2-tert-butoxy-2-(7-(4-chlorophenyl)-5-methyl-2-(5-methylindolin-1-yl)benzo[d]thiazol-6-yl)acetic acid]
Second: Cc1cc2nc(-c3ccc4c(c3)c(C)nn4C)sc2c(-c2ccc(Cl)cc2)c1[C@H](OC(C)(C)C)C(=O)O [Compound 254, (S)-2-tert-butoxy-2-(7-(4-chlorophenyl)-2-(1,3-dimethyl-1H-indazol-5-yl)-5-methylbenzo[d]thiazol-6-yl)acetic acid]
The EC50 of the first is 53-fold higher: 424 nM for the first, 8 nM for the second. The second is the more potent here.

`Cc1cc2nc(-c3nc(N4CCN(C(C)C)CC4)cs3)sc2c(-c2ccc(Cl)cc2)c1[C@H](OC(C)(C)C)C(=O)O` [Compound 246, (S)-2-tert-butoxy-2-(7-(4-chlorophenyl)-2-(4-(4-isopropylpiperazin-1-yl)thiazol-2-yl)-5-methylbenzo[d]thiazol-6-yl)acetic acid] and `Cc1cc2nc(-c3nc(N4CCN(C)CC4)cs3)sc2c(-c2ccc(Cl)cc2)c1[C@H](OC(C)(C)C)C(=O)O` [Compound 247] are within 1.5-fold of each other in EC50: 9 nM for the first, 10 nM for the second.

Compared with `Cc1cc2nc(-c3cnc4c(c3)c(-c3cccnc3)cn4C)sc2c(-c2ccc(Cl)cc2)c1[C@H](OC(C)(C)C)C(=O)O` [Compound 249, (S)-2-tert-butoxy-2-(7-(4-chlorophenyl)-5-methyl-2-(1-methyl-3-(pyridin-3-yl)-1H-pyrrolo[2,3-b]pyridin-5-yl)benzo[d]thiazol-6-yl)acetic acid], `Cc1cc2nc(-c3ccc4nn(C)c(C)c4c3)sc2c(-c2ccc(Cl)cc2)c1[C@H](OC(C)(C)C)C(=O)O` [Compound 265, (S)-2-tert-butoxy-2-(7-(4-chlorophenyl)-2-(2,3-dimethyl-2H-indazol-5-yl)-5-methylbenzo[d]thiazol-6-yl)acetic acid] is 2.1-fold higher in EC50: 7 nM for the first, 15 nM for the second.

`Cc1cc2nc(-c3cc(-c4ccc5c(c4)c(C)nn5C)nc(N4CCN(C)CC4)c3)sc2c(-c2ccc(Cl)cc2)c1[C@H](OC(C)(C)C)C(=O)O` [Compound 255, (S)-2-tert-butoxy-2-(7-(4-chlorophenyl)-2-(2-(1,3-dimethyl-1H-indazol-5-yl)-6-(4-methylpiperazin-1-yl)pyridin-4-yl)-5-methylbenzo[d]thiazol-6-yl)acetic acid] and `Cc1cc2nc(-c3ccc4c(N5CCN(C)CC5)nn(C)c4c3)sc2c(-c2ccc(Cl)cc2)c1[C@H](OC(C)(C)C)C(=O)O` [Compound 259, (S)-2-tert-butoxy-2-(7-(4-chlorophenyl)-5-methyl-2-(1-methyl-3-(4-methylpiperazin-1-yl)-1H-indazol-6-yl)benzo[d]thiazol-6-yl)acetic acid] are the same in EC50: 12 nM for the first, 12 nM for the second.

`Cc1cc2nc(-c3ccc4c(c3)C(C)(C)C(=O)N4C)sc2c(-c2ccc(Cl)cc2)c1[C@H](OC(C)(C)C)C(=O)O` [Compound 256, (S)-2-tert-butoxy-2-(7-(4-chlorophenyl)-5-methyl-2-(1,3,3-trimethyl-2-oxoindolin-5-yl)benzo[d]thiazol-6-yl)acetic acid] and `Cc1cc2nc(-c3ccc4c(c3)c(N(C)C)nn4C)sc2c(-c2ccc(Cl)cc2)c1[C@H](OC(C)(C)C)C(=O)O` [Compound 258, (S)-2-tert-butoxy-2-(7-(4-chlorophenyl)-2-(3-(dimethylamino)-1-methyl-1H-indazol-5-yl)-5-methylbenzo[d]thiazol-6-yl)acetic acid] are within 1.5-fold of each other in EC50: 9 nM for the first, 13 nM for the second.

Compound `Cc1cc2nc(-c3ccc4c(c3)c(C3CC3)nn4C)sc2c(-c2ccc(Cl)cc2)c1[C@H](OC(C)(C)C)C(=O)O` [Compound 264, (S)-2-tert-butoxy-2-(7-(4-chlorophenyl)-2-(3-cyclopropyl-1-methyl-1H-indazol-5-yl)-5-methylbenzo[d]thiazol-6-yl)acetic acid] has an EC50 of 17 nM.
